Reference: ChEMBL document CHEMBL4831556, “Discovery of a Novel Potent and Selective Calcium Release-Activated Calcium Channel Inhibitor: 2,6-Difluoro-N-(2'-methyl-3'-(4-methyl-5-oxo-4,5-dihydro-1,3,4-oxadiazol-2-yl)-[1,1'-biphenyl]-4-yl)benzamide. Structure-Activity Relationship and Preclinical Characterization” (J Med Chem, 2021)
Several values for one entry are separate records, joined by “and”; a condition that tells them apart may be missing. Equal entries are not always repeated.

What was measured:
[1] = Half life in Lewis rat at 10 mg/kg, po measured upto 24 hrs by LC-MS/MS analysis; format: ADME, organism-based; conditions: in vivo
[2] = Plasma protein binding; format: ADME, cell-free; conditions: read-out: PPB
[3] = Tmax in Lewis rat at 1 mg/kg, iv measured upto 24 hrs by LC-MS/MS analysis; format: ADME, organism-based; conditions: in vivo
[4] = Half life in BALB/c mouse at 10 mg/kg, po measured upto 24 hrs by LC-MS/MS analysis; format: ADME, organism-based; conditions: in vivo
[5] = target: T1, Cytochrome P450 2A6 (Homo sapiens, UniProt P11509); experiment: Inhibition of CYP2A6 in human liver microsomes at 10 uM by LC-MS/MS analysis; format: ADME
T1 sequence (P11509 whole entry): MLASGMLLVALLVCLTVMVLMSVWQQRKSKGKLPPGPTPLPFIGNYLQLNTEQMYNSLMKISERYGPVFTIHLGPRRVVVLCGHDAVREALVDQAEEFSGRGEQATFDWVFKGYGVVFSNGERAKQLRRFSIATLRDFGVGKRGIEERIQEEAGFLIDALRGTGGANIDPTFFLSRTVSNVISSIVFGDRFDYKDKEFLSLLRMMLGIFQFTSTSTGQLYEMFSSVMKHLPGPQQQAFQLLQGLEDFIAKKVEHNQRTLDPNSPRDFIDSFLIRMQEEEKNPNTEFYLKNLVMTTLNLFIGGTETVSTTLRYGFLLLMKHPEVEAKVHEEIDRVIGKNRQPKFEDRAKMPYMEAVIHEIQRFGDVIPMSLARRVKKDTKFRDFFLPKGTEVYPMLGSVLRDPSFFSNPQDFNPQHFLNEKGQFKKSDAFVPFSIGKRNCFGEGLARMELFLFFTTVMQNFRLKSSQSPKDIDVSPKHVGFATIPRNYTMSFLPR

[6] = AUClast in Lewis rat at 1 mg/kg, iv measured upto 24 hrs by LC-MS/MS analysis; format: ADME, organism-based; set-up: route intravenous, dose 1 mg/kg, time <=24; conditions: in vivo
[7] = Half life in Lewis rat at 1 mg/kg, iv measured upto 24 hrs by LC-MS/MS analysis; format: ADME, organism-based; conditions: in vivo
[8] = AUClast in collagen-induced rheumatoid arthritis DBA/1J mouse model at 3 mg/kg, po administered twice daily for 15 days; format: ADME, organism-based; set-up: route oral, dose 3 mg/kg, time 15 day; conditions: in vivo
[9] = AUC(0 to t) in rat at 60 mg/kg/day after 2 weeks; format: ADME, organism-based; set-up: dose 60 mg/kg/day, time 2 weeks; conditions: in vivo
[10] = Toxicity in mouse assessed as maximum tolerated dose; conditions: in vivo
[11] = Cmax in rat at 60 mg/kg/day after 2 weeks; format: ADME, organism-based; set-up: time 2 weeks, dose 60 mg/kg/day; conditions: in vivo
[12] = target: ORAI1/STIM1 (Homo sapiens, UniProt Q13586+Q96D31); experiment: Inhibition of Orai1/STIM1 (unknown origin) expressed in HEK293 cells assessed as reduction in Ca2+-release activated Ca2+ entry current by manual patch clamp based electrophysiological method; format: cell-based
Chain of ORAI1/STIM1 (Q96D31 whole entry): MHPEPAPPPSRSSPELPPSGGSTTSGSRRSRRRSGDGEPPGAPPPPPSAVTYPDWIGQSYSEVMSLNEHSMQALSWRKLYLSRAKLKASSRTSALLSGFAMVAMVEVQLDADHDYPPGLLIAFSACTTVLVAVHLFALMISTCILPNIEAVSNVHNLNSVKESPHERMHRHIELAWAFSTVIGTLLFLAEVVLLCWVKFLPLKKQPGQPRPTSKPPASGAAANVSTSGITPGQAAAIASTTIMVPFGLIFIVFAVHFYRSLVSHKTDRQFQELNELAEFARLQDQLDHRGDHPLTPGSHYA
Chain of ORAI1/STIM1 (Q13586 whole entry): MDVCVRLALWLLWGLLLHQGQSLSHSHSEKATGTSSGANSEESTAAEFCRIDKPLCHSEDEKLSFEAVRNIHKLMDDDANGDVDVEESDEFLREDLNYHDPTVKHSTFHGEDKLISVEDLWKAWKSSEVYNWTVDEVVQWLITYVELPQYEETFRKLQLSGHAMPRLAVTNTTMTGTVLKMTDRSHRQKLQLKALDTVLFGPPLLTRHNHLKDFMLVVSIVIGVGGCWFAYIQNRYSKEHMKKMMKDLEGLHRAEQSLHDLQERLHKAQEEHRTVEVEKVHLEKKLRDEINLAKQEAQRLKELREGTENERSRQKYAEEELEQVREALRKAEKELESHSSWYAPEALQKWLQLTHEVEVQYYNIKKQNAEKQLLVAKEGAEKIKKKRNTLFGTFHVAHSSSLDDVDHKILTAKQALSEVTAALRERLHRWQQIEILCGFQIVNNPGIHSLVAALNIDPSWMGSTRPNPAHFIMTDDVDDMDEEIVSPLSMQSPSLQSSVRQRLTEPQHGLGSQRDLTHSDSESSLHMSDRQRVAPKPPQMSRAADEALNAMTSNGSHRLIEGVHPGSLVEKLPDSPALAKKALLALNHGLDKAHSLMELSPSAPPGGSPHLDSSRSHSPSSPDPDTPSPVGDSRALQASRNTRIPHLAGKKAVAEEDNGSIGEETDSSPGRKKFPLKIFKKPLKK

[13] = Trough concentration in human whole blood at 80 mg, bid; format: ADME, tissue-based; conditions: read-out: Cmin
[14] = Cmax in BALB/c mouse model of mBSA-induced delayed type hypersensitivity at 10 mg/kg, po administered twice daily for 7 days followed by mBSA challenge and measured after 24 hrs; format: ADME, organism-based; set-up: route oral, dose 10 mg/kg, time 8 day; conditions: in vivo
[15] = AUClast in collagen-induced rheumatoid arthritis DBA/1J mouse model at 3 mg/kg, po administered twice daily for 15 days in presence of 0.75 mg/kg of methotrexate; format: ADME, organism-based; set-up: route oral, dose 3 mg/kg, time 15 day; conditions: in vivo
[16] = Tmax in CFA-induced rheumatoid arthritis Lewis rat model at 3 mg/kg, po administered once daily for 15 days; format: ADME, organism-based; conditions: in vivo, time 15 day
[17] = Tmax in BALB/c mouse model of mBSA-induced delayed type hypersensitivity at 10 mg/kg, po administered twice daily for 7 days followed by mBSA challenge and measured after 24 hrs; format: ADME, organism-based; conditions: in vivo, time 8 day
[18] = target: Tumor necrosis factor (Homo sapiens, UniProt P01375); experiment: Inhibition of TNF-alpha in thapsigargin stimulated human whole blood; format: tissue-based
Chain of Tumor necrosis factor (P01375 whole entry): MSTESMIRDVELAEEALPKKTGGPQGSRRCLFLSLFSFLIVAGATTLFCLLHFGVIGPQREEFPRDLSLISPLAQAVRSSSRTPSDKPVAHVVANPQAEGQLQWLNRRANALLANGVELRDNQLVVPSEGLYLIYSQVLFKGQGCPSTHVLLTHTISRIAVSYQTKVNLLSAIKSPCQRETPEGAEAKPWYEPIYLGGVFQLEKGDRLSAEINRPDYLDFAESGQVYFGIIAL

[19] = Cmax in rat at 1 mg/kg/day; format: ADME, organism-based; set-up: dose 1 mg/kg/day; conditions: in vivo
[20] = Cmax in CFA-induced rheumatoid arthritis Lewis rat model at 0.3 mg/kg, po administered once daily for 15 days; format: ADME, organism-based; set-up: route oral, dose 0.3 mg/kg, time 15 day; conditions: in vivo
[21] = AUC(0 to t) in human at […] measured on day 14; format: ADME, organism-based; set-up: time 14 day; conditions: in vivo
[22] = AUClast in CFA-induced rheumatoid arthritis Lewis rat model at 3 mg/kg, po administered once daily for 15 days; format: ADME, organism-based; set-up: route oral, time 15 day, dose 3 mg/kg; conditions: in vivo
[23] = Trough concentration in human whole blood at 160 mg, qd; format: ADME, tissue-based; conditions: read-out: Cmin
[24] = Cmax in rat at 60 mg/kg/day after 13 weeks; format: ADME, organism-based; set-up: time 13 weeks, dose 60 mg/kg/day; conditions: in vivo
[25] = Tmax in collagen-induced rheumatoid arthritis DBA/1J mouse model at 3 mg/kg, po administered twice daily for 15 days; format: ADME, organism-based; conditions: in vivo, time 15 day
[26] = Cmax in collagen-induced rheumatoid arthritis DBA/1J mouse model at 3 mg/kg, po administered twice daily for 15 days; format: ADME, organism-based; set-up: route oral, time 15 day, dose 3 mg/kg; conditions: in vivo
[27] = Toxicity in rat assessed as minimum effective dose; conditions: in vivo
[28] = Trough concentration in human whole blood at 80 mg, qd; format: ADME, tissue-based; conditions: read-out: Cmin
[29] = Tmax in CFA-induced rheumatoid arthritis Lewis rat model at 0.3 mg/kg, po administered once daily for 15 days; format: ADME, organism-based; conditions: in vivo, time 15 day
[30] = AUClast in BALB/c mouse model of mBSA-induced delayed type hypersensitivity at 1 mg/kg, po administered twice daily for 7 days followed by mBSA challenge and measured after 24 hrs; format: ADME, organism-based; set-up: route oral, dose 1 mg/kg, time 8 day; conditions: in vivo
[31] = Cmax in human whole blood at 160 mg, qd; format: ADME, tissue-based; set-up: dose 160 mg
[32] = AUClast in BALB/c mouse model of mBSA-induced delayed type hypersensitivity at 10 mg/kg, po administered twice daily for 7 days followed by mBSA challenge and measured after 24 hrs; format: ADME, organism-based; set-up: route oral, time 8 day, dose 10 mg/kg; conditions: in vivo
[33] = Cmax in BALB/c mouse model of mBSA-induced delayed type hypersensitivity at 3 mg/kg, po administered twice daily for 7 days followed by mBSA challenge and measured after 24 hrs; format: ADME, organism-based; set-up: route oral, time 8 day, dose 3 mg/kg; conditions: in vivo
[34] = AUClast in rat at 1 mg/kg/day; format: ADME, organism-based; set-up: time 0 - last, dose 1 mg/kg/day; conditions: in vivo
[35] = Tmax in CFA-induced rheumatoid arthritis Lewis rat model at 1 mg/kg, po administered once daily for 15 days; format: ADME, organism-based; conditions: in vivo, time 15 day
[36] = Toxicity in human assessed as minimum effective dose
[37] = Cmax in BALB/c mouse model of mBSA-induced delayed type hypersensitivity at 1 mg/kg, po administered twice daily for 7 days followed by mBSA challenge and measured after 24 hrs; format: ADME, organism-based; set-up: route oral, time 8 day, dose 1 mg/kg; conditions: in vivo
[38] = Cmax in human at […] measured on day 14; format: ADME, organism-based; set-up: time 14 day; conditions: in vivo
[39] = AUClast in CFA-induced rheumatoid arthritis Lewis rat model at 0.3 mg/kg, po administered once daily for 15 days; format: ADME, organism-based; set-up: route oral, time 15 day, dose 0.3 mg/kg; conditions: in vivo
[40] = Tmax in collagen-induced rheumatoid arthritis DBA/1J mouse model at 3 mg/kg, po administered twice daily for 15 days in presence of 0.75 mg/kg of methotrexate; format: ADME, organism-based; conditions: in vivo, time 15 day
[41] = Tmax in BALB/c mouse model of mBSA-induced delayed type hypersensitivity at 3 mg/kg, po administered twice daily for 7 days followed by mBSA challenge and measured after 24 hrs; format: ADME, organism-based; conditions: in vivo, time 8 day
[42] = Cmax in human whole blood at 80 mg, qd; format: ADME, tissue-based; set-up: dose 80 mg
[43] = Cmax in CFA-induced rheumatoid arthritis Lewis rat model at 1 mg/kg, po administered once daily for 15 days; format: ADME, organism-based; set-up: route oral, dose 1 mg/kg, time 15 day; conditions: in vivo

Question: Which half-life [1] does the source give for `Cc1c(-c2ccc(NC(=O)c3c(F)cccc3Cl)cc2)cccc1-c1nn(C)c(=O)o1` here?
Answer: 16 h

Question: What about the fraction unbound [2] of the same compound?
Answer: 0.01

Question: What about the Tmax [3] of the same compound?
Answer: 4.8 min

Question: And the half-life [4]?
Answer: 6 h

Question: What about the “inhibition (INH)” value [5] of the same compound?
Answer: Not Active

Question: What about the AUC(0-t) at 24 h [6] of the same compound?
Answer: 28 µM·h

Question: What about the half-life [7] of the same compound?
Answer: 13 h

Question: For `Cc1c(-c2ccc(NC(=O)c3c(F)cccc3F)cc2)cccc1-c1nn(C)c(=O)o1`, which AUC(0-t) at 360 h [8] is on record?
Answer: 12 µM·h

Question: And the AUC(0-t) at 336 h [9]?
Answer: 76.7 µg·h/mL

Question: And the MTD [10]?
Answer: 2000 mg/kg

Question: What about the Cmax [11] of the same compound?
Answer: 5.44 µg/mL

Question: What about the IC50 [12] of the same compound?
Answer: 0.076 µM

Question: What about the concentration [13] of the same compound?
Answer: 0.667 µM

Question: What about the Cmax [14] of the same compound?
Answer: 3.3 µM

Question: What about the AUC(0-t) at 360 h [15] of the same compound?
Answer: 13 µM·h

Question: And the Tmax [16]?
Answer: 4 h

Question: What about the fraction unbound [2] of the same compound?
Answer: 0.01

Question: What about the Tmax [17] of the same compound?
Answer: 2 h

Question: What about the IC50 [18] of the same compound?
Answer: 0.694 µM

Question: And the Cmax [19]?
Answer: 2 µM and 843 ng/mL

Question: And the Cmax [20]?
Answer: 0.6 µM

Question: What about the AUC(0-t) at 336 h [21] of the same compound?
Answer: 7.05 µg·h/mL

Question: What about the AUC(0-t) at 360 h [22] of the same compound?
Answer: 80 µM·h

Question: And the concentration [23]?
Answer: 0.403 µM

Question: What about the Tmax [3] of the same compound?
Answer: 4.8 min

Question: What about the Cmax [24] of the same compound?
Answer: 4.68 µg/mL

Question: What about the Tmax [25] of the same compound?
Answer: 1 h

Question: And the half-life [4]?
Answer: 5.3 h

Question: What about the Cmax [26] of the same compound?
Answer: 1.9 µM

Question: What about the MED [27] of the same compound?
Answer: 1 mg/kg

Question: What about the “inhibition (INH)” value [5] of the same compound?
Answer: Not Active

Question: What about the concentration [28] of the same compound?
Answer: 0.185 µM

Question: What about the Tmax [29] of the same compound?
Answer: 2 h

Question: What about the AUC(0-t) at 192 h [30] of the same compound?
Answer: 3.1 µM·h

Question: And the Cmax [31]?
Answer: 1.76 µM

Question: What about the AUC(0-t) at 192 h [32] of the same compound?
Answer: 17 µM·h

Question: And the Cmax [33]?
Answer: 1.6 µM

Question: And the AUC(0-t) at 24 h [6]?
Answer: 29 µM·h

Question: What about the AUC(0-t) [34] of the same compound?
Answer: 36 µM·h and 15200 ng·h/mL

Question: And the Tmax [35]?
Answer: 2 h

Question: And the MED [36]?
Answer: 80 mg/kg

Question: What about the Cmax [37] of the same compound?
Answer: 0.6 µM

Question: What about the Cmax [38] of the same compound?
Answer: 0.53 µg/mL

Question: What about the half-life [7] of the same compound?
Answer: > 15 h

Question: What about the AUC(0-t) at 360 h [39] of the same compound?
Answer: 10 µM·h

Question: And the Tmax [40]?
Answer: 2 h

Question: What about the Tmax [41] of the same compound?
Answer: 2 h

Question: What about the Cmax [42] of the same compound?
Answer: 0.95 µM

Question: And the Cmax [43]?
Answer: 2 µM
